In ChEMBL document CHEMBL3045145, “Synthesis, characterization and their anticonvulsant, anti-inflammatory studies of some novel chromeno oxadiazoles” (2013):

Legend:
Assay type in all cases: functional
Rattus norvegicus [1] = experiment: Anti-inflammatory activity in Rattus norvegicus Wistar (rat) assessed as inhibition of carrageenan-induced paw edema at 20 mg/kg, ip administered 30 min post carrageenan-challenge measured after 3 hr relative to control; details: route intraperitoneal
Mus musculus [2] = experiment: Anticonvulsant activity in Mus musculus albino (mouse) assessed as time of onset of PTZ-induced clonic convulsion at 25 mg/kg, po administered 30 min prior to PTZ-challenge (reference value: 61 secs)
Mus musculus [3] = experiment: Anticonvulsant activity in Mus musculus albino (mouse) assessed as protection against PTZ-induced clonic convulsion at 25 mg/kg, po administered 30 min prior to PTZ-challenge relative to control
Rattus norvegicus [4] = experiment: Anti-inflammatory activity in Rattus norvegicus Wistar (rat) assessed as inhibition of carrageenan-induced paw edema at 10 mg/kg, ip administered 30 min post carrageenan-challenge measured after 3 hr relative to control; details: route intraperitoneal

SMILES	inhibition in vivo at 20 mg/kg (Rattus norvegicus [1]) [%]	Time (Mus musculus [2]) [s]	Activity (Mus musculus [3]) [%]	inhibition in vivo at 10 mg/kg (Rattus norvegicus [4]) [%]
O=[N+]([O-])c1cccc(/C=N/C2Oc3ccccc3CC2c2noc(-c3cccc([N+](=O)[O-])c3)n2)c1 (stereo not given)	40.9	60	100	–
Fc1ccc(Br)cc1/C=N/C1Oc2ccccc2CC1c1noc(-c2cc(Br)ccc2F)n1 (stereo not given)	–	128	66.6	–
COc1cc(/C=N/C2Oc3ccccc3CC2c2noc(-c3ccc(O)c(OC)c3)n2)ccc1O (stereo not given)	42.5	80	66.6	–
Brc1ccc(/C=N/C2Oc3ccccc3CC2c2noc(-c3ccc(Br)cc3)n2)cc1 (stereo not given)	–	104	100	–
C(=N\C1Oc2ccccc2CC1c1noc(-c2nccs2)n1)/c1nccs1 (stereo not given)	17.3	201	100	–
Fc1ccc(/C=N/C2Oc3ccccc3CC2c2noc(-c3ccc(F)c(Oc4ccccc4)c3)n2)cc1Oc1ccccc1 (stereo not given)	37	–	–	–
Clc1ccccc1/C=N/C1Oc2ccccc2CC1c1noc(-c2ccccc2Cl)n1 (stereo not given)	37	226	100	–
Clc1ccc(/C=N/C2Oc3ccccc3CC2c2noc(-c3ccc(Cl)cc3)n2)cc1 (stereo not given)	26.8	218	100	–
Oc1ccccc1/C=N/C1Oc2ccccc2CC1c1noc(-c2ccccc2O)n1 (stereo not given)	27.5	325	100	–
COc1ccc(/C=N/C2Oc3ccccc3CC2c2noc(-c3ccc(OC)c(OC)c3)n2)cc1OC (stereo not given)	31.5	158	100	–
Fc1ccc(/C=N/C2Oc3ccccc3CC2c2noc(-c3ccc(F)cc3)n2)cc1 (stereo not given)	–	101	100	–
C(/C=C/c1ccccc1)=N/C1Oc2ccccc2CC1c1noc(/C=C/c2ccccc2)n1 (stereo not given)	23.6	–	–	–
O=C(O)Cc1ccccc1Nc1c(Cl)cccc1Cl [DICLOFENAC]	–	–	–	80.4
